{"source": "patent US20210017295A1", "about": "“BISPECIFIC BINDING AGENTS AND USES THEREOF” (MEMORIAL SLOAN KETTERING CANCER CENTER, priority 2018, published 2021)", "key": {"[1]": {"experiment": "Hematology panel", "format": "in vivo, mouse", "details": "small tumors; single-cycle study, 55.5 MBq; ~85 d"}, "[2]": {"system": "s.c. HER2(−) MDA-MB-468 tumors", "format": "in vivo, mouse", "details": "24 h p.i."}, "[3]": {"system": "s.c. HER2(+) BT-474 tumors", "experiment": "Dosimetry calculations (estimated absorbed doses, therapeutic index)", "details": "optimized anti-HER2-DOTA-PRIT, from 1.0-336 h biodistribution", "text": "For each tissue, the non-decay-corrected time-activity concentration data were fit using Excel to a 1-component, 2-component, or more complex exponential function as appropriate, and analytically integrated to yield the cumulated activity concentration per unit administered activity (MBq-h/g per MBq). The ^177Lu equilibrium dose constant for non-penetrating radiations (8.49 g-cGy/MBq-h) was used to estimate the tumor-to-tumor and select organ-to-organ self-absorbed doses, assuming complete local absorption of the ^177Lu beta rays only, and ignoring the gamma ray and non-self dose contributions."}, "[4]": {"system": "HER2(+) BT-474 tumors", "experiment": "Biodistribution with modified BsAb / clearing agent time intervals (same-day PRIT)", "format": "in vivo, mouse", "details": "for average blood uptake / average tumor uptake: 24 h p.i.", "description": "During a second set of experiments (Table 31), the BsAb timing interval was varied, as well as the timing interval between the clearing agent and ^177Lu-DOTA-Bn. All animals were sacrificed 24 hours-post-injection of ^177Lu-DOTA-Bn."}, "[5]": {"details": "MDA-MB-468 HER2(−), PRIT + no CA, mean ± SEM"}, "[6]": {"details": "BsAb for 4 hours, then CA vehicle only (total BsAb circulation 8 hours)"}, "[7]": {"details": "Table 30 group 3 (increased clearing agent dose)"}}, "note": "Several values for one entry are separate records, joined by “and”; a condition that tells them apart may be missing. Equal entries are not always repeated."}
{"smiles": "Nc1ccc(CC2CN(CC(=O)[O-])CCN(CC(=O)[O-])CCN(CC(=O)[O-])CCN2CC(=O)[O-])cc1.[177Lu+3]", "note": "(stereo not shown) [^177Lu-DOTA-Bn]", "values": [{"measurement": "HGB", "setting": "[1]", "value": "13.1 g/dL and 12.9 g/dL and 14.3 g/dL and 14.9 g/dL and 14.0 g/dL"}, {"measurement": "RBC", "setting": "[1]", "value": "8.22 M/μL and 7.74 M/μL and 8.54 M/μL and 8.80 M/μL and 8.32 M/μL"}, {"measurement": "tumor uptake in HER2(−) tumors vs HER2(+) BT-474 tumors, fold lower", "setting": "[2]; PRIT, no CA", "value": "~7", "unit": "fold"}, {"measurement": "^177Lu activity in Blood", "setting": "[2]; [5]", "value": "6.59 ± 1.31", "unit": "% IA/g"}, {"measurement": "^177Lu activity in Bone", "setting": "[2]; [5]", "value": "0.62 ± 0.17", "unit": "% IA/g"}, {"measurement": "^177Lu activity in Heart", "setting": "[2]; [5]", "value": "1.78 ± 0.29", "unit": "% IA/g"}, {"measurement": "^177Lu activity in Kidneys", "setting": "[2]; [5]", "value": "2.39 ± 0.54", "unit": "% IA/g"}, {"measurement": "^177Lu activity in Large Int.", "setting": "[2]; [5]", "value": "0.35 ± 0.06", "unit": "% IA/g"}, {"measurement": "^177Lu activity in Liver", "setting": "[2]; [5]", "value": "2.69 ± 0.35", "unit": "% IA/g"}, {"measurement": "^177Lu activity in Lungs", "setting": "[2]; [5]", "value": "2.44 ± 0.42", "unit": "% IA/g"}, {"measurement": "^177Lu activity in Muscle", "setting": "[2]; [5]", "value": "0.50 ± 0.14", "unit": "% IA/g"}, {"measurement": "^177Lu activity in Small Int.", "setting": "[2]; [5]", "value": "0.61 ± 0.11", "unit": "% IA/g"}, {"measurement": "^177Lu activity in Spleen", "setting": "[2]; [5]", "value": "1.06 ± 0.16", "unit": "% IA/g"}, {"measurement": "^177Lu activity in Stomach", "setting": "[2]; [5]", "value": "0.27 ± 0.04", "unit": "% IA/g"}, {"measurement": "^177Lu activity in Tumor", "setting": "[2]; [5]", "value": "2.75±0.17", "unit": "% IA/g"}, {"measurement": "Estimated absorbed dose, Blood", "setting": "[3]", "value": 1.4, "unit": "cGy/MBq"}, {"measurement": "Estimated absorbed dose, Bone", "setting": "[3]", "value": 0.7, "unit": "cGy/MBq"}, {"measurement": "Estimated absorbed dose, Heart", "setting": "[3]", "value": 0.4, "unit": "cGy/MBq"}, {"measurement": "Estimated absorbed dose, Kidneys", "setting": "[3]", "value": 5.6, "unit": "cGy/MBq"}, {"measurement": "Estimated absorbed dose, Large Intestine", "setting": "[3]", "value": 0.8, "unit": "cGy/MBq"}, {"measurement": "Estimated absorbed dose, Liver", "setting": "[3]", "value": 3.3, "unit": "cGy/MBq"}, {"measurement": "Estimated absorbed dose, Lung", "setting": "[3]", "value": 1.3, "unit": "cGy/MBq"}, {"measurement": "Estimated absorbed dose, Muscle", "setting": "[3]", "value": 0.9, "unit": "cGy/MBq"}, {"measurement": "Estimated absorbed dose, Small Intestine", "setting": "[3]", "value": 0.4, "unit": "cGy/MBq"}, {"measurement": "Estimated absorbed dose, Spleen", "setting": "[3]", "value": 0.3, "unit": "cGy/MBq"}, {"measurement": "Estimated absorbed dose, Stomach", "setting": "[3]", "value": 0.3, "unit": "cGy/MBq"}, {"measurement": "Estimated absorbed dose, Tumor", "setting": "[3]", "value": 39.9, "unit": "cGy/MBq"}, {"measurement": "Tumor:Blood ratio", "setting": "[4]; [6]", "value": "~3.2"}, {"measurement": "blood uptake", "setting": "[4]; [6]", "value": 12.07, "unit": "% ID/g"}, {"measurement": "tumor uptake", "setting": "[4]; [6]", "value": "~40", "unit": "% ID/g"}, {"measurement": "average blood uptake", "setting": "[4]; Table 30 group 1", "value": 0.06}, {"measurement": "average tumor uptake", "setting": "[4]; Table 30 group 1", "value": 11.62}, {"measurement": "average blood uptake", "setting": "[4]; [7]", "value": 0.03}, {"measurement": "average tumor uptake", "setting": "[4]; [7]", "value": 4.14}]}
